Data: paper PMC11753388, “Bispecific Thio‐Linked Disaccharides as Inhibitors of Pseudomonas Aeruginosa Lectins LecA (PA‐IL) and LecB (PA‐IIL): Dual‐Targeting Strategy” (Chemistry (Weinheim an Der Bergstrasse, Germany), 2024)
pKd: −log10 of the molar value. Like-named read-outs stand apart in the source and are kept apart here.

Legend:
LecB (PA-IIL) [1] = molecular target: T1, LecB (PA-IIL) (Pseudomonas aeruginosa, UniProt Q9HYN5); assay: yeast agglutination inhibition, microscopy; type: biochemical; conditions: LecB 625 μg/ml, yeast cells; complete inhibition
T1 construct: soluble calcium-dependent homotetramer, one site per monomer
Excerpt: yeast agglutination inhibition, microscopy on LecB (PA-IIL)

LecA (PA-IL) [2] = molecular target: T2, LecA (PA-IL) (Pseudomonas aeruginosa, UniProt Q05097); assay: hemagglutination inhibition, microscopy; type: biochemical; conditions: LecA 125 μg/ml, group O red blood cells; complete inhibition
T2 construct: soluble calcium-dependent homotetramer, one site per monomer
Excerpt: hemagglutination inhibition, microscopy on LecA (PA-IL)

LecA (PA-IL) [3] = molecular target: T2, LecA (PA-IL); assay: isothermal titration calorimetry; type: binding
Excerpt: isothermal titration calorimetry on LecA (PA-IL)

LecB (PA-IIL) [4] = molecular target: T1, LecB (PA-IIL); assay: isothermal titration calorimetry; type: binding

T1 sequence (Q9HYN5 entry or part of it): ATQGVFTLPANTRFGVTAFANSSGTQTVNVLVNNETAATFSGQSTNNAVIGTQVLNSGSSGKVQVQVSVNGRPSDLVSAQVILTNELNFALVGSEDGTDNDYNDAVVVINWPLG
T2 sequence (Q05097 2-122): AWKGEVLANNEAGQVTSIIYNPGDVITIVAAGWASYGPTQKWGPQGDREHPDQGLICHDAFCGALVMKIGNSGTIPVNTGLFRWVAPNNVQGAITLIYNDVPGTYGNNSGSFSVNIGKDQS

## C[C@@H]1O[C@@H](S[C@H]2O[C@H](CO)[C@@H](O)[C@H](O)[C@H]2O)[C@@H](O)[C@H](O)[C@@H]1O [compound 26, Thio‐L‐Fuc‐α(1,1)α‐D‐Glc]
LecB (PA-IIL) [1]
  LecB / MIC: 6.10 µM

## OC[C@H]1O[C@H](S[C@H]2O[C@H](CO)[C@H](O)[C@H](O)[C@H]2O)[C@H](O)[C@@H](O)[C@H]1O [compound 29, Thio‐D‐Gal‐α(1,1)α‐D‐Gal]
LecA (PA-IL) [2]
  LecA / MIC: 97.5 µM

## C[C@H]1O[C@H](S[C@H]2O[C@H](CO)[C@H](O)[C@H](O)[C@H]2O)[C@H](O)[C@@H](O)[C@H]1O [compound 28, Thio‐D‐Fuc‐α(1,1)α‐D‐Gal]
LecA (PA-IL) [2]
  LecA / MIC: 390 µM

## C[C@@H]1O[C@@H](S[C@H]2O[C@H](CO)[C@H](O)[C@H](O)[C@H]2O)[C@@H](O)[C@H](O)[C@@H]1O [compound 27, Thio‐L‐Fuc‐α(1,1)α‐D‐Gal]
LecA (PA-IL) [3]
  pKd: 4.25
LecB (PA-IIL) [4]
  pKd: 6.72

## C[C@@H]1O[C@@H](S[C@@H]2O[C@H](CO)[C@H](O)[C@H](O)[C@H]2O)[C@@H](O)[C@H](O)[C@@H]1O [compound 14, Thio‐L‐Fuc‐α(1,1)β‐D‐Gal]
LecA (PA-IL) [3]
  pKd: 3.94
LecB (PA-IIL) [4]
  pKd: 6.46

## C[C@@H]1O[C@@H](S[C@@H]2O[C@@H](C)[C@@H](O)[C@@H](O)[C@@H]2O)[C@@H](O)[C@H](O)[C@@H]1O [compound 25, Thio‐L‐Fuc‐α(1,1)α‐L‐Fuc]
LecB (PA-IIL) [1]
  LecB / MIC: 6.10 µM

## OC[C@H]1O[C@H](S[C@H]2O[C@H](CO)[C@@H](O)[C@H](O)[C@H]2O)[C@H](O)[C@@H](O)[C@H]1O [compound 30, Thio‐D‐Gal‐α(1,1)α‐D‐Glc]
LecA (PA-IL) [2]
  LecA / MIC: 390 µM

## OC[C@H]1OC(O)[C@H](O)[C@@H](O)[C@H]1O (stereo partly drawn) [D-Galactose]
LecA (PA-IL) [3]; read-out: LecA / KD, 300 μM lectin, 2 mM ligand, non-sigmoid curve, n apparent
  pKd: 3.76
